Assay results published in patent US20210210190A1, “Diagnostic Method” (Amazentis SA, priority 2019, published 2021).
Where “and” joins values, the source holds several entries; their conditions need not be identical. Equal values may be shown once.

Tests used:
[1] = Single ascending dose study in healthy elderly subjects: Urolithin A glucuronide in urine (Example 6, Part A); assay type: in vivo, human; settings: mean ± standard error
Method: A single (Part A) and multiple (Part B) dose study of urolithin A was conducted to evaluate the safety, tolerability, pharmacokinetics and pharmacodynamics profile in healthy elderly subjects.
Part A: The study was a double-blind, randomized, single ascending doses, study in 24 healthy elderly male and female volunteers. Each subject was randomized for two subsequent doses in three cohorts.
1100 mg soft gel capsule containing 250 mg of urolithin A (as described in Example 2 above). Soft gel capsules were blister-packed in bulk, Labelling was in accordance with local regulatory specifications and requirements.
Part A: Single oral dose administration on D1 of each period according to the randomisation. The administration took place around 8:00 am with around 200 mL tap water, in sitting position, and under fasting conditions.
Cohort 1 (8 subjects): 250 mg urolithin A (6 subjects) or placebo (2 subjects) capsule soft gel formulation then 2000 mg urolithin A or placebo capsule soft gel formulation. Cohort 2 (8 subjects): 500 mg urolithin A (6 subjects) or placebo (2 subjects) capsule soft gel formulation. Cohort 3 (8 subjects): 1000 mg urolithin A (6 subjects) or placebo (2 subjects) capsule soft gel formulation.
In Part A of the study, total urine was collected during the following intervals: 0-4 h, 4-8 h, 8-12 h, 12-24 h and 24-36 h post-dose. The collected urine volume of each collection period was carefully measured by weight and recorded in the eCRF, as well as the exact start and stop time of the collection interval. Each fraction of collected urine was homogenized and 2 aliquots of 5 mL per interval were kept and stored below −80° C. Following a protocol amendment to extend the blood sampling scheme from 36 to 96 h post-dose, additional spot urine samples were taken 72 and 96 h post-dose but urine was not collected quantitatively.
The concentrations of Urolithin A and its metabolites in urine was determined using validated LC-MS/MS assays. The limit of quantification (LOQ) was 10 ng/mL for Urolithin A in urine and 50 ng/mL for Urolithin A glucuronide and Urolithin A sulphate in urine.

[2] = Study of pomegranate juice and oral urolithin A: urolithin A glucuronide in dried blood spots (Example 3); assay type: in vivo, human; settings: dried blood spot, 24 hours after 500 mg Urolithin A softgel capsule; individual subjects 1-7; listed as UA
Method: A study was conducted in seven subjects. At the beginning of the study a sample of capillary blood via a finger prick was taken from each subject and 15-20 uL of whole blood was dried onto a dried blood sample (DBS) filter paper sample card (Whatman, Little Chalfont, Buckinghamshire, UK). A minimum of 2 spots per sampling were collected for each time-point. At T0 i.e. baseline sample, subjects ingested 80 ml pomegranate juice (freshly prepared/). At 24 hours following pomegranate juice intake, a further dried blood spot sample was taken and 15-20 uL of whole blood was dried onto a DBS filter paper card. Following this, subjects ingested 500 mg of Urolithin A in a softgel capsule and then at 48 hours (or 24 hours following UA intake), a further dried blood spot sample was taken and 15-20 uL of whole blood was dried onto DBS filter paper sample card.
This analytical method was developed to analyse whole blood spot samples collected on dry blood spot sample cards (DBS Filter card) in Example 3.
Each dried blood spot was punched from cards using a 6 mm diameter puncher and transferred into a tube. Afterwards 150 μL of methanol containing the internal standard was added. […]
The quantification of UA-glucuronide was performed by column separation with reversed-phase chromatography followed by detection with triple-stage quadrupole MS/MS in the selected reaction monitoring mode.

- Urolithin A glucuronide in urine ([1]; 250 mg dose, Predose): 4,114 ± 1,261 ng/mL
- Urolithin A glucuronide in urine ([1]; 250 mg dose, T0-T4 h): 8,536 ± 1,394 ng/mL
- Urolithin A glucuronide in urine ([1]; 250 mg dose, T4 h-T8 h): 31,617 ± 7,637 ng/mL
- Urolithin A glucuronide in urine ([1]; 250 mg dose, T8 h-T12 h): 40,453 ± 9,275 ng/mL
- Urolithin A glucuronide in urine ([1]; 250 mg dose, T12 h-T24 h): 62,817 ± 8,454 ng/mL
- Urolithin A glucuronide in urine ([1]; 250 mg dose, T24 h-T36 h): 33,962 ± 8,708 ng/mL
- Urolithin A glucuronide in urine ([1]; 500 mg dose, Predose): 4,114 ± 1,261 ng/mL
- Urolithin A glucuronide in urine ([1]; 500 mg dose, T0-T4 h): 40,167 ± 6,802 ng/mL
- Urolithin A glucuronide in urine ([1]; 500 mg dose, T96 spot urine): 8,720 ± 3,113 ng/mL
- Urolithin A glucuronide in urine ([1]; 500 mg dose, T4 h-T8 h): 86,758 ± 12,051 ng/mL
- Urolithin A glucuronide in urine ([1]; 500 mg dose, T8 h-T12 h): 63,800 ± 9,043 ng/mL
- Urolithin A glucuronide in urine ([1]; 500 mg dose, T12 h-T24 h): 81,125 ± 10,792 ng/mL
- Urolithin A glucuronide in urine ([1]; 500 mg dose, T24 h-T36 h): 44,242 ± 4,631 ng/mL
- Urolithin A glucuronide in urine ([1]; 500 mg dose, T72 h spot urine): 15,706 ± 3,751 ng/mL
- Urolithin A glucuronide in urine ([1]; 1000 mg dose, Predose): 4,114 ± 1,261 ng/mL
- Urolithin A glucuronide in urine ([1]; 1000 mg dose, T0-T4 h): 70,492 ± 12,094 ng/mL
- Urolithin A glucuronide in urine ([1]; 1000 mg dose, T96 spot urine): 16,335 ± 3,897 ng/mL
- Urolithin A glucuronide in urine ([1]; 1000 mg dose, T4 h-T8 h): 76,417 ± 10,635 ng/mL
- Urolithin A glucuronide in urine ([1]; 1000 mg dose, T8 h-T12 h): 64,967 ± 8,075 ng/mL
- Urolithin A glucuronide in urine ([1]; 1000 mg dose, T12 h-T24 h): 107,983 ± 17,683 ng/mL
- Urolithin A glucuronide in urine ([1]; 1000 mg dose, T24 h-T36 h): 59,575 ± 9,560 ng/mL
- Urolithin A glucuronide in urine ([1]; 1000 mg dose, T72 h spot urine): 29,412 ± 5,717 ng/mL
- Urolithin A glucuronide in urine ([1]; 2000 mg dose, Predose): 4,114 ± 1,261 ng/mL
- Urolithin A glucuronide in urine ([1]; 2000 mg dose, T0-T4 h): 39,500 ± 6,033 ng/mL
- Urolithin A glucuronide in urine ([1]; 2000 mg dose, T96 spot urine): 38,487 ± 12,858 ng/mL
- Urolithin A glucuronide in urine ([1]; 2000 mg dose, T4 h-T8 h): 65,317 ± 10,853 ng/mL
- Urolithin A glucuronide in urine ([1]; 2000 mg dose, T8 h-T12 h): 50,450 ± 5,793 ng/mL
- Urolithin A glucuronide in urine ([1]; 2000 mg dose, T12 h-T24 h): 114,817 ± 12,123 ng/mL
- Urolithin A glucuronide in urine ([1]; 2000 mg dose, T24 h-T36 h): 60,533 ± 12,216 ng/mL
- Urolithin A glucuronide in urine ([1]; 2000 mg dose, T72 h spot urine): 70,567 ± 17,054 ng/mL
Compound: O=c1oc2cc(O)ccc2c2ccc(O)cc12 [Urolithin A]
- 500 mg single UA dosing 24 h UA levels [2]: 153 ng/mL and 93.0 ng/mL and 98.0 ng/mL and 125 ng/mL and 134 ng/mL and 173 ng/mL
